According to patent publication US9603364B2 (Dow AgroSciences LLC, priority 2013, dated 2017):

How the values were obtained:
Assay in all cases: General post-emergent herbicidal activity, foliar application
Type in all cases: in vivo
[1] = tested on: Echinochloa crus-galli (L.) Beauv. (barnyardgrass); conditions: for pest or weed control at 70 g/ha / pest or weed control at 140 g/ha / pest or weed control at 35 g/ha / pest or weed control at 280 g/ha: Echinochloa crus-galli, 336 h, foliar post-emergent, scored after 14 days, read-out: % Visual Growth Reduction ECHCG; for pest or weed control at 70 g/ha: 70 g ai/ha; for pest or weed control at 140 g/ha: 140 g ai/ha; for GR80 Value ECHCG: calculated by probit analysis, dose for 80% visual injury, may be extrapolated; for pest or weed control at 35 g/ha: 35 g ai/ha; for pest or weed control at 280 g/ha: 280 g ai/ha
Outline: (§1)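 Compounds in acetone/DMSO 97:3 were diluted into aqueous spray mix with isopropanol, crop oil concentrate and Triton X-155, then serially diluted to 1/2×–1/16× of the top rate and sprayed on foliage. Plants were kept in greenhouse with sub-irrigation. Injury was scored visually (0–100%) at 14 days; GR20/GR50/GR80 came from probit analysis.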

[2] = tested on: Viola tricolor L. (pansy); conditions: for pest or weed control at 70 g/ha / pest or weed control at 140 g/ha / pest or weed control at 35 g/ha / pest or weed control at 280 g/ha: Viola tricolor, 336 h, foliar post-emergent, scored after 14 days, read-out: % Visual Growth Reduction VIOTR; for pest or weed control at 70 g/ha: 70 g ai/ha; for pest or weed control at 140 g/ha: 140 g ai/ha; for GR80 Value VIOTR: calculated by probit analysis, dose for 80% visual injury, may be extrapolated; for pest or weed control at 35 g/ha: 35 g ai/ha; for pest or weed control at 280 g/ha: 280 g ai/ha
Outline: as §1

[3] = tested on: Helianthus annuus L. (sunflower, common); conditions: for pest or weed control at 70 g/ha / pest or weed control at 140 g/ha / pest or weed control at 35 g/ha / pest or weed control at 280 g/ha: Helianthus annuus, 336 h, foliar post-emergent, scored after 14 days, read-out: % Visual Growth Reduction HELAN; for pest or weed control at 70 g/ha: 70 g ai/ha; for pest or weed control at 140 g/ha: 140 g ai/ha; for GR80 Value HELAN: calculated by probit analysis, dose for 80% visual injury, may be extrapolated; for pest or weed control at 35 g/ha: 35 g ai/ha; for pest or weed control at 280 g/ha: 280 g ai/ha
Outline: as §1

[4] = tested on: Euphorbia heterophylla L. (poinsettia, wild); conditions: for pest or weed control at 70 g/ha / pest or weed control at 140 g/ha / pest or weed control at 35 g/ha / pest or weed control at 280 g/ha: Euphorbia heterophylla, 336 h, foliar post-emergent, scored after 14 days, read-out: % Visual Growth Reduction EPHHL; for pest or weed control at 70 g/ha: 70 g ai/ha; for pest or weed control at 140 g/ha: 140 g ai/ha; for GR80 Value EPHHL: calculated by probit analysis, dose for 80% visual injury, may be extrapolated; for pest or weed control at 35 g/ha: 35 g ai/ha; for pest or weed control at 280 g/ha: 280 g ai/ha
Outline: as §1

[5] = tested on: Chenopodium album L. (lambsquarters, common); conditions: for pest or weed control at 70 g/ha / pest or weed control at 140 g/ha / pest or weed control at 35 g/ha / pest or weed control at 280 g/ha: Chenopodium album, 336 h, foliar post-emergent, scored after 14 days, read-out: % Visual Growth Reduction CHEAL; for pest or weed control at 70 g/ha: 70 g ai/ha; for pest or weed control at 140 g/ha: 140 g ai/ha; for GR80 Value CHEAL: calculated by probit analysis, dose for 80% visual injury, may be extrapolated; for pest or weed control at 35 g/ha: 35 g ai/ha; for pest or weed control at 280 g/ha: 280 g ai/ha
Outline: as §1

[6] = tested on: Amaranthus retroflexus L. (pigweed, redroot); conditions: for pest or weed control at 70 g/ha / pest or weed control at 140 g/ha / pest or weed control at 35 g/ha / pest or weed control at 280 g/ha: Amaranthus retroflexus, 336 h, foliar post-emergent, scored after 14 days, read-out: % Visual Growth Reduction AMARE; for pest or weed control at 70 g/ha: 70 g ai/ha; for pest or weed control at 140 g/ha: 140 g ai/ha; for GR80 Value AMARE: calculated by probit analysis, dose for 80% visual injury, may be extrapolated; for pest or weed control at 35 g/ha: 35 g ai/ha; for pest or weed control at 280 g/ha: 280 g ai/ha
Outline: as §1

Oryza sativa L. (rice) = conditions: Oryza sativa, 336 h, scored after 14 days, read-out: % Visual Growth Reduction ORYSA; for plant injury at 70 g/ha: 70 g ai/ha; for plant injury at 140 g/ha: 140 g ai/ha; for plant injury at 35 g/ha: 35 g ai/ha; for plant injury at 280 g/ha: 280 g ai/ha
Outline: (§2)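 Injury rated visually 14 days after treatment on a 0 (none) to 100% (complete kill) scale against untreated plants; greenhouse-grown, sub-irrigated to avoid wash-off. Foliar spray in aqueous acetone/DMSO with isopropanol, crop oil concentrate and Triton X-155, at a highest rate and 2-fold serial dilutions down to 1/16×.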

Zea mays L. (corn) = conditions: 336 h, scored after 14 days, read-out: % Visual Growth Reduction ZEAMX; for plant injury at 70 g/ha: 70 g ai/ha; for plant injury at 140 g/ha: 140 g ai/ha; for plant injury at 35 g/ha: 35 g ai/ha; for plant injury at 280 g/ha: 280 g ai/ha
Outline: as §2

SMILES | pest or weed control at 70 g/ha [1] | pest or weed control at 140 g/ha [1] | GR80 Value ECHCG [1] | pest or weed control at 70 g/ha [2] | pest or weed control at 140 g/ha [2] | GR80 Value VIOTR [2] | pest or weed control at 140 g/ha [3] | pest or weed control at 140 g/ha [4] | pest or weed control at 140 g/ha [5] | pest or weed control at 140 g/ha [6] | plant injury at 140 g/ha (Oryza sativa L. (rice)) | plant injury at 140 g/ha (Zea mays L. (corn)) | pest or weed control at 280 g/ha [1] | pest or weed control at 280 g/ha [2] | pest or weed control at 280 g/ha [3] | pest or weed control at 280 g/ha [4] | pest or weed control at 280 g/ha [5] | pest or weed control at 280 g/ha [6] | plant injury at 280 g/ha (Oryza sativa L. (rice)) | plant injury at 280 g/ha (Zea mays L. (corn)) | other results
COC(=O)c1nc(C(C)(C)F)cc(N)c1Cl [Compound F9, methyl 4-amino-3-chloro-6-(2-fluoropropan-2-yl)picolinate] | 0% | 0% | >140 g ai/ha | 40% | 30% | >140 g ai/ha | 50% | 100% | 85% | 100% | 0% | 15% | – | – | – | – | – | – | – | – | pest or weed control at 70 g/ha [3]: 50%; GR80 Value HELAN [3]: 237 g ai/ha; pest or weed control at 70 g/ha [4]: 85%; GR80 Value EPHHL [4]: 49.4 g ai/ha; pest or weed control at 70 g/ha [5]: 70%; GR80 Value CHEAL [5]: 110 g ai/ha; pest or weed control at 70 g/ha [6]: 100%; GR80 Value AMARE [6]: 13.7 g ai/ha; plant injury at 70 g/ha (Oryza sativa L. (rice)): 0%; plant injury at 70 g/ha (Zea mays L. (corn)): 0%
COC(=O)c1nc(CF)c(Cl)c(N)c1Cl [Compound F1, Methyl 4-amino-3,5-dichloro-6-(fluoromethyl)picolinate] | 0% | 0% | >280 g ai/ha | 0% | 10% | >280 g ai/ha | 100% | 100% | 90% | 80% | 0% | 0% | 0% | 10% | 100% | 100% | 90% | 90% | 0% | 0% | pest or weed control at 35 g/ha [1]: 0%; pest or weed control at 35 g/ha [2]: 0%; pest or weed control at 35 g/ha [3]: 100%; pest or weed control at 70 g/ha [3]: 100%; GR80 Value HELAN [3]: <17.5 g ai/ha; pest or weed control at 35 g/ha [4]: 100%; pest or weed control at 70 g/ha [4]: 100%; GR80 Value EPHHL [4]: 26.2 g ai/ha; pest or weed control at 35 g/ha [5]: 90%; pest or weed control at 70 g/ha [5]: 90%; GR80 Value CHEAL [5]: 17.5 g ai/ha; pest or weed control at 35 g/ha [6]: 55%; pest or weed control at 70 g/ha [6]: 60%; GR80 Value AMARE [6]: 142 g ai/ha; plant injury at 35 g/ha (Oryza sativa L. (rice)): 0%; plant injury at 70 g/ha (Oryza sativa L. (rice)): 0%; plant injury at 35 g/ha (Zea mays L. (corn)): 0%; plant injury at 70 g/ha (Zea mays L. (corn)): 0%
C=C(F)c1cc(N)c(Cl)c(C(=O)OC)n1 [Compound F6, methyl 4-amino-3-chloro-6-(1-fluorovinyl)picolinate] | – | – | – | – | – | – | – | – | – | – | – | – | 0% | 0% | 20% | 60% | 90% | 40% | 0% | 0% | –
C=C(F)c1nc(C(=O)OC)c(Cl)c(N)c1F [Compound F22, methyl 4-amino-3-chloro-5-fluoro-6-(1-fluorovinyl)picolinate] | – | 0% | – | – | 10% | – | 80% | 50% | 90% | 90% | 0% | 0% | 0% | 10% | 80% | 60% | 90% | 90% | 0% | 0% | –
COC(=O)c1nc(C(C)F)cc(N)c1Cl (centres unmarked) [Compound F19, Methyl 4-amino-3-chloro-6-(1-fluoroethyl)picolinate] | 0% | 20% | >280 g ai/ha | 100% | 100% | 34.3 g ai/ha | 50% | 100% | 100% | 100% | 0% | 90% | 25% | 100% | 80% | 100% | 100% | 100% | 0% | 100% | pest or weed control at 35 g/ha [1]: 0%; pest or weed control at 35 g/ha [2]: 100%; pest or weed control at 35 g/ha [3]: 10%; pest or weed control at 70 g/ha [3]: 20%; GR80 Value HELAN [3]: 341 g ai/ha; pest or weed control at 35 g/ha [4]: 10%; pest or weed control at 70 g/ha [4]: 90%; GR80 Value EPHHL [4]: 72.3 g ai/ha; pest or weed control at 35 g/ha [5]: 100%; pest or weed control at 70 g/ha [5]: 100%; GR80 Value CHEAL [5]: <17.5 g ai/ha; pest or weed control at 35 g/ha [6]: 100%; pest or weed control at 70 g/ha [6]: 100%; GR80 Value AMARE [6]: 19.1 g ai/ha; plant injury at 35 g/ha (Oryza sativa L. (rice)): 0%; plant injury at 70 g/ha (Oryza sativa L. (rice)): 0%; plant injury at 35 g/ha (Zea mays L. (corn)): 0%; plant injury at 70 g/ha (Zea mays L. (corn)): 0%
